Data from patent US20100009920A1, “TTK AS TUMOR MARKER AND THERAPEUTIC TARGET FOR LUNG CANCER” (priority 2006, published 2010).
“Also recorded” adds a separate entry of the source. Where two headings read alike, the source gives them in different places.

Key:
Format in all cases: cell-based, human
A549 cells = experiment: Microscopic observation of cell morphology (phase contrast images); conditions: non-treated cells as control
Procedure: (§1) The oligo-siRNAs (Dharmacon, Inc., Lafayette, Colo.) ([…]) were transfected into appropriate lung-cancer cell lines using 30 micro-1 of Lipofectamine 2000 (Invitrogen, Carlsbad, Calif.) following the manufacturer's protocol. The ribonucleotide sequences corresponding to following sequences were used as the oligo-siRNA.
The endogenous association between TTK and EGFR in lung cancer cells was also investigated by immunoprecipitaion experiment using extracts from A549 cells, and the interaction between these two proteins regardless the EGF-stimulation was detected (FIG. 4b). To further examine the relevance of TTK to EGFR signaling, TTK or EGFR function in A549 cells were suppressed and cell morphology was microscopically observed.

phospho-EGFR (Tyr-992) = experiment: Phospho-EGFR (Tyr-992) level in A549 cells after RNAi (immunofluorescence, western blot); conditions: for phosphorylation level of EGFR Tyr-992, western blot: A549 cells; for phospho-EGFR (Tyr-992), immunofluorescence: serum-starved A549 cells
Procedure: (§2) Cells were lysed with RIPA buffer [50 mM Tris-HCl (pH 8.0), 150 mM NaCl, 1% NP-40, 0.5% deoxychorate-Na, 0.1% SDS] containing Protease Inhibitor Cocktail Set III (CALBIOCHEM) and phosphatase inhibitor (1 mM sodium fluoride, 1 mM sodium orthovanadate, 2 mM imidazole, 4 mM sodium tartrate). Cytoplasmic and nuclear extractions were isolated by NE-PER Nuclear and Cytoplasmic Extraction Reagents (PIERCE). Protein samples were separated by SDS-polyacrylamide gels and electroblotted onto Hybond-ECL nitrocellulose membranes (GE Healthcare Bio-sciences). Blots were incubated with a mouse monoclonal anti-Mps1 (TTK) antibody (Upstate), rabbit polyclonal anti-phospho-EGFR antibodies (Tyr-845, Tyr-992, Tyr-1045, Tyr-1068, […], and Tyr-1173; Cell Signaling Technology, Inc.), a rabbit polyclonal anti-EGFR antibody (Cell Signaling Technology, Inc.), a rabbit polyclonal anti-phospho-PLCgamma1 (Tyr-771) antibody (Cell Signaling Technology, Inc.), a rabbit polyclonal anti-PLCgamma1 antibody (Cell Signaling Technology, Inc.), a rabbit polyclonal anti-phospho-p44/42 MAPK (Thr202/Tyr204) antibody (Cell Signaling Technology, Inc.), a rabbit polyclonal anti-p44/42 MAPK antibody (Cell Signaling Technology, Inc.), a mouse monoclonal anti-Flag antibody (SIGMA) or a mouse monoclonal anti-beta-actin antibody (SIGMA). Anti-phospho-EGFR (Ser-967) antibodies were raised against Ser-967-phosphorylated synthetic peptides and purified with the phosphopeptide column. Antigen-antibody complexes were detected using secondary antibodies conjugated to horseradish peroxidase (GE Healthcare Bio-sciences). Protein bands were visualized by ECL Western Blotting Detection Reagents (GE Healthcare Bio-sciences).
Cultured cells were fixed with 4% paraformaldehyde solution for 15 min at 37° C., or 10% Trichloro acetic acid for 15 min on ice. Fixed cells were incubated in PBS(−) containing 0.1% Triton X-100 for 10 min and subsequently washed with PBS(−). Prior to the primary antibody reaction, fixed cells were covered with CAS-BLOCK (ZYMED Laboratories Inc.) for 10 min to block non-specific-antibody binding. Then the cells were incubated with a mouse monoclonal anti-Mps1 (TTK) antibody (Upstate) and a rabbit polyclonal anti-phospho-EGFR (Tyr-992) (Cell Signaling Technology, Inc.), or a rabbit polyclonal anti-phospho-p44/42 MAPK (Thr202/Tyr204) antibody (Cell Signaling Technology, Inc.), or a mouse monoclonal anti-Flag antibody (SIGMA). Antibodies were stained with an anti-mouse secondary antibody conjugated to Alexa Fluor 488 (Molecular Probes) and an anti-rabbit secondary antibody conjugated to Alexa Fluor 594 (Molecular Probes). […] Images were viewed and assessed using a confocal microscope at wavelengths of 488, 594 nm (TCS SP2 AOBS: Leica Microsystems). […]

phospho-EGFR (Ser-967) = experiment: Phospho-EGFR (Ser-967) level in A549 cells after RNAi (immunofluorescence)
Procedure: (§3) Cells were lysed with RIPA buffer [50 mM Tris-HCl (pH 8.0), 150 mM NaCl, 1% NP-40, 0.5% deoxychorate-Na, 0.1% SDS] containing Protease Inhibitor Cocktail Set III (CALBIOCHEM) and phosphatase inhibitor (1 mM sodium fluoride, 1 mM sodium orthovanadate, 2 mM imidazole, 4 mM sodium tartrate). Cytoplasmic and nuclear extractions were isolated by NE-PER Nuclear and Cytoplasmic Extraction Reagents (PIERCE). Protein samples were separated by SDS-polyacrylamide gels and electroblotted onto Hybond-ECL nitrocellulose membranes (GE Healthcare Bio-sciences). […] Antigen-antibody complexes were detected using secondary antibodies conjugated to horseradish peroxidase (GE Healthcare Bio-sciences). […]
Cultured cells were fixed with 4% paraformaldehyde solution for 15 min at 37° C., or 10% Trichloro acetic acid for 15 min on ice. […] Images were viewed and assessed using a confocal microscope at wavelengths of 488, 594 nm (TCS SP2 AOBS: Leica Microsystems). […]

PLCγ1 and p44/42 MAPK = experiment: Western blot of PLCγ and p44/42 MAPK in A549 cells after RNAi
Procedure: as §2, §1

TTK = TTK protein level in A549 cells after RNAi (western blot)
Procedure: as §3

[1] = listed as RNAi (oligo) against TTK

Sequence: CAAGATGTGTTAAAGTGTTTT (listed as DNA, chemistry not given here) [RNAi-TTK (oligo)]
- cell morphology (A549 cells): became much larger with multiple nuclei
- phosphorylation level of EGFR Tyr-992, western blot (phospho-EGFR (Tyr-992)): decreased
- phosphorylation level of EGFR Tyr-992, western blot (phospho-EGFR (Tyr-992); [1]): reduced
- phospho-EGFR (Tyr-992), immunofluorescence (phospho-EGFR (Tyr-992)): significantly decreased
- phospho-EGFR (Tyr-992), immunofluorescence (phospho-EGFR (Tyr-992); listed as si-TTK): reduced
- levels of phospho-EGFR Ser-967, immunofluorescence (phospho-EGFR (Ser-967)): decreased significantly
- levels of phospho-EGFR Ser-967, immunofluorescence (phospho-EGFR (Ser-967); [1]): reduced
- amount of PLCγ protein (PLCγ1 and p44/42 MAPK): did not affect
- amount of p44/42 MAPK protein (PLCγ1 and p44/42 MAPK): did not affect
- phospho-PLCγ (Tyr-771) (PLCγ1 and p44/42 MAPK): decrease
- phosphorylation of p44/42 MAPK (Thr202/Tyr204) (PLCγ1 and p44/42 MAPK): decrease
- phospho-PLCγ (Tyr-771) (PLCγ1 and p44/42 MAPK; [1]): reduced
- phosphorylation of p44/42 MAPK (Thr202/Tyr204) (PLCγ1 and p44/42 MAPK; [1]): reduced
- TTK protein (TTK): Reduction; also recorded: suppression
